Experimental data taken from US20220401514A1, “ANTIMICROBIAL, BACTERIOPHAGE-DERIVED POLYPEPTIDES AND THEIR USE AGAINST GRAM-NEGATIVE AND ACID-FAST BACTERIA” (CONTRAFECT CORPORATION, priority 2019, published 2022).
Like-named read-outs stand apart in the source and are kept apart here.

What was measured:
[1] = system: Pseudomonas aeruginosa; test: microbe, parasite or virus in culture; assay type: cell-based; details: for MIC: CAA without human serum
[2] = system: P. aeruginosa strain CFS-1292; test: MIC in presence of divalent cations (calcium chloride, magnesium sulfate); assay type: cell-based, Pseudomonas aeruginosa
Procedure: Next, Chp peptides were evaluated in the presence of different divalent cations. […]; (2) in the presence of 2 mM calcium chloride alone; (3) in the presence of 1 mM magnesium sulfate alone; and (4) in the presence of both 2 mM calcium chloride and 1 mM magnesium sulfate. […]

[3] = system: P. aeruginosa strain CFS-1292; test: MIC in presence and absence of Survanta pulmonary surfactant; assay type: cell-based, Pseudomonas aeruginosa
[4] = system: Klebsiella pneumoniae; test: microbe, parasite or virus in culture; assay type: cell-based; details: CAA without human serum
[5] = system: M. smegmatis; test: 45 hr MIC against M. smegmatis (NTM), Mueller Hinton broth; assay type: cell-based, Mycobacterium smegmatis; details: M. smegmatis MC^2 155, Run #1
[6] = system: Enterobacter cloacae; test: microbe, parasite or virus in culture; assay type: cell-based
Outline: (§1)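 Strains are exposed to peptide dilutions in CAA containing human serum, and the minimal inhibitory concentration is recorded.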

[7] = system: Escherichia coli; test: microbe, parasite or virus in culture; assay type: cell-based
Outline: as §1

[8] = system: P. aeruginosa strain CFS-1292; test: MIC at pH 6, pH 7 and pH 8; assay type: cell-based, Pseudomonas aeruginosa
Procedure: The Chp peptides were further evaluated at varying pH levels. The MIC values were determined at pH 6, pH 7, and pH 8 for 18 different Chp peptides against P. aeruginosa strain CFS-1292. […]

[9] = system: Salmonella typhimurium; test: MIC against Salmonella typhimurium; assay type: cell-based
[10] = system: S. maltophilia; test: MIC against S. maltophilia isolates; assay type: cell-based, Stenotrophomonas maltophilia; details: S. maltophilia isolates (n per peptide in table)
Outline: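 MIC in μg/mL for Chp peptides across several S. maltophilia isolates, n denoting the number of isolates tested.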

[11] = system: carbapenem-resistant P. aeruginosa clinical isolate CFS-1292; test: MIC by modified CLSI broth microdilution against P. aeruginosa CFS-1292 (CAA, CAA + human serum); assay type: cell-based, Pseudomonas aeruginosa; details: 100% CAA; 1st run or single value
[12] = Stability assessment in 100% CAA; assay type: in vitro ADME; design: unit not given beside the values
Procedure: Stability was assessed after incubation in 100% human serum at 37° C. after 10 minutes, 1 hour, and 2 hours.
Stability assessment was further conducted in 100% CAA and rabbit serum using the same methodology discussed above.

[13] = system: carbapenem-resistant bacterial strains; test: organism not typed; assay type: cell-based
From the text: (§2) Determination of Minimal Inhibitory Concentrations (MIC).

[14] = system: Acinetobacter baumannii; test: microbe, parasite or virus in culture; assay type: cell-based
[15] = system: Klebsiella pneumoniae; assay type: cell-based
Procedure: as §2
Additional MIC testing was performed for several peptides against the ESKAPE pathogens Escherichia coli, Enterobacter cloacae, Klebsiella pneumoniae, and Acinetobacter baumannii, in CAA supplemented with human serum (Table D).

[16] = system: P. aeruginosa strain CFS-1292; test: MIC in presence and absence of NaCl (140 mM); assay type: cell-based, Pseudomonas aeruginosa
Procedure: Certain Chp peptides were evaluated over a range of physiological NaCl levels and pH values, and were further evaluated for activity in the presence of various divalent cations.

[17] = P. aeruginosa isolates (n per peptide in table)
[18] = E. cloacae isolates (n per peptide in table)
[19] = E. coli isolates (n per peptide in table)
[20] = A. baumannii isolates (n per peptide in table)
[21] = K. pneumoniae isolates (n per peptide in table)

MARSRRRMSKRSSRRSFRKYAKTHKRNFKARSMRGGIRL [Ecp1]
MIC ([1]; P. aeruginosa 453 (Human clinical isolate, HSS), RSC 1292): 2 µg/mL | MIC ([1]; P. aeruginosa (ATCC 14213, human hip wound), RSC 1111): 2 µg/mL | MIC ([1]; P. aeruginosa (ATCC 15152, abscess in middle ear), RSC 1110): 1 µg/mL | MIC ([1]; P. aeruginosa (ATCC 15692, infected wound), RSC 489): 2 µg/mL | MIC ([1]; P. aeruginosa (ATCC 15692, infected wound), RSC 1115): 2 µg/mL | MIC ([1]; P. aeruginosa (ATCC 17646, human liver abscess), RSC 1109): 2 µg/mL | MIC ([1]; P. aeruginosa (ATCC 19142, tracheobronchial secretion), RSC 1108): 1 µg/mL | MIC ([1]; P. aeruginosa (ATCC 25102, bacteriophage host), RSC 1114): 2 µg/mL | MIC ([1]; P. aeruginosa (ATCC 27853, MIC control strain), RSC 815): 2 µg/mL | MIC ([1]; P. aeruginosa (ATCC BAA-27, lab strain), RSC 1113): 4 µg/mL | MIC ([1]; P. aeruginosa (PAO1, alternate source, HER1018), RSC 490): 2 µg/mL | MIC50 [1, 17]: 4 µg/mL | MIC100 [1, 17]: >8 µg/mL | MIC ([2]; CAA media + 1 mM MgSO4): 0.5 µg/mL | MIC ([2]; CAA media + 2 mM CaCl2): 1 µg/mL | MIC ([2]; CAA media + + 1 mM MgSO4): 1 µg/mL | MIC ([2]; CAA media alone): 0.5 µg/mL | MIC ([3]; CAA media + 0.19 mg/mL Survanta): 0.5 µg/mL | MIC ([3]; CAA media + […] Survanta): 0.5 µg/mL | MIC ([3]; CAA media alone): 0.5 µg/mL | MIC ([4]; Klebsiella pneumoniae (ATCC 10031, MIC control strain), RSC 814): 2 µg/mL | MIC ([4]; Klebsiella pneumoniae (g2-3 HM35K), RSC 1138): 2 µg/mL | MIC ([4]; Klebsiella sp. (HM-44; colon, Crohn's disease), RSC 1139): 2 µg/mL | MIC ([4]; Klebsiella spp. (HM-223; gut of Crohn's disease patient), RSC 1131): 2 µg/mL | 45 hr MIC [5]: 4 µg/mL | MIC50 [6, 18]: 0.5 µg/mL | MIC100 [6, 18]: 2 µg/mL | MIC Range [6, 18]: 0.25 to 4 µg/mL | MIC ([6]; Enterobacter cloacae (ATCC 13047, MIC control strain), RSC 1240, CAA without human serum): 2 µg/mL | MIC ([6]; Enterobacter cloacae ATCC 13047, CAA supplemented with human serum): 16 µg/mL | MIC ([7]; E. coli (ATCC 25922, MIC control strain), RSC 813, CAA without human serum): 2 µg/mL | MIC ([7]; E. coli (HM346, colon, Crohn's disease), RSC 1212, CAA without human serum): 2 µg/mL | MIC50 [7, 19]: 0.5 µg/mL | MIC100 [7, 19]: 2 µg/mL | MIC Range [7, 19]: 0.25 to 4 µg/mL | MIC ([7]; Escherichia coli ATCC 25922, CAA supplemented with human serum): 0.25 µg/mL | MIC ([8]; CAA media (pH 7)): 0.5 µg/mL | MIC ([8]; pH 6): 1 µg/mL | MIC ([8]; pH 7): 1 µg/mL | MIC ([8]; pH 8): 1 µg/mL | MIC ([9]; Salmonella typhimurium): 2 µg/mL | MIC ([9]; Salmonella typhimurium LT2 (lab isolate), RSC 27, CAA without human serum): 2 µg/mL | MIC50 [10]: 8 µg/mL | MIC100 [10]: >8 µg/mL | MIC (μg/mL) against CFS-1292 in 100% CAA (1st run/2nd run) [11]: 0.5 µg/mL | MIC (100% CAA) [12]: 0.25 | MIC ([13]; carbapenem-resistant isolate PA19): 1 µg/mL | MIC ([13]; carbapenem-resistant isolate PA20): >8 µg/mL | MIC ([13]; carbapenem-resistant isolate PA21): >8 µg/mL | MIC ([13]; carbapenem-resistant isolate PA22): 8 µg/mL | MIC ([13]; carbapenem-resistant isolate PA23): 4 µg/mL | MIC ([13]; carbapenem-resistant isolate PA24): 4 µg/mL | MIC ([13]; carbapenem-resistant isolate WLC-452): 2 µg/mL | MIC50 [14, 20]: 0.5 µg/mL | MIC100 [14, 20]: 1 µg/mL | MIC Range [14, 20]: 0.125 to 2 µg/mL | MIC ([14]; Acinetobacter baumannii (clinical isolate HSS), RSC 30, CAA without human serum): 2 µg/mL | MIC ([14]; Acinetobacter baumannii (clinical isolate HSS), RSC 32, CAA without human serum): 2 µg/mL | MIC ([14]; Acinetobacter baumannii ATCC BAA 747, CAA supplemented with human serum): 1 µg/mL | MIC50 [15, 21]: 1 µg/mL | MIC100 [15, 21]: 2 µg/mL | MIC Range [15, 21]: 1 to 2 µg/mL | MIC ([15]; Klebsiella pneumoniae HM-44, CAA supplemented with human serum): 0.5 µg/mL | Fold change in MIC ([16]; CAA + 140 mM NaCl versus CAA without added NaCl): 4 | MIC, CAA + 140 mM NaCl ([16]; CAA + 140 mM NaCl, P. aeruginosa CFS-1292): 2 µg/mL | MIC, CAA (no added NaCl) ([16]; CAA, no added NaCl, P. aeruginosa CFS-1292): 0.5 µg/mL
